Counter-ions that a name gives are not always drawn.

Data set [1] in a line: Solubility in water / dissolution buffer. It counts as physicochemical.
Data set [2] in a line: In vitro release of naltrexone from drug-loaded formulations at 37° C. in isotonic phosphate buffer. The format is physicochemical. The conditions noted are these: compared with hydrated naltrexone base; 25% 50/50 PLGA (i.v. 0.64) with pure PEG 400 or 50/50% PEG 400/TEC; drug 20% w/w. The protocol:
The solutions were stirred to yield a uniform mixture. Acetone was evaporated from the mixtures by heating at 60-75° C. with constant stirring. The blank formulations were kept in a vacuum oven at 60-75° C. overnight to ensure complete removal of acetone. […] Either hydrated naltrexone base (20% w/w) or naltrexone hydrochloride (20% w/w) was added to the blank formulations and mixed thoroughly to ensure uniform distribution of the drugs in the formulations. Drug release from the drug-loaded formulations was performed at 37° C. in isotonic phosphate buffer. […] This is because the solubility of the naltrexone hydrochloride in the dissolution buffer is much greater than that of the hydrated naltrexone base.

The nature of data set [3]: In vivo release of oxytetracycline from biodegradable delivery systems in quail. The conditions noted are these: delivery systems with varying polymer molecular weights (FIG. 16). From the text: FIG. 16 describes the effect of varying polymer molecular weights on in vivo release of oxytetracycline base from biodegradable delivery systems.
The nature of data set [4]: In vitro release of oxytetracycline from drug-loaded formulations at 37° C. in isotonic phosphate buffer containing sodium sulfite. It counts as physicochemical. As to conditions: for drug release / drug release (rank among plasticizers): drug 20% w/w. The protocol: A polymer (25% w/w of 50/50 lactide-co-glycolide copolymer, inherent viscosity of 0.59) was dissolved in a minimum quantity of acetone. Pure polyethylene glycol 400 (PEG 400) was added to the polymer solution. The solution was stirred to yield a uniform mixture. Acetone was evaporated from the mixture by heating at 60-75° C. with constant stirring. The blank formulation was kept in a vacuum oven at 60-75° C. overnight to ensure complete removal of acetone. […] Three different concentrations of oxytetracycline base (either 10, 20 or 30% w/w) were added to the blank formulation and mixed thoroughly to ensure uniform distribution of the drug in the formulations. Drug release from the drug-loaded formulations was performed at 37° C. in isotonic phosphate buffer containing sodium sulfite as an antioxidant. […] This increase occurred because, at higher drug-loadings, more drug is available on the surface of the formulations for release. Moreover, a higher drug concentration gradient between the formulation and the dissolution medium is expected at 30% w/w drug-loading compared to the one at 10% w/w drug loading.
(§1) A polymer (25% w/w of 50/50 lactide-co-glycolide copolymer, inherent viscosity of 0.59) was dissolved in a minimum quantity of acetone. […] The resulting solutions were stirred to yield uniform mixtures. Acetone was evaporated from the mixtures by heating at 60-75° C. with constant stirring. The blank formulations were kept in a vacuum oven at 60-75° C. overnight to ensure complete removal of acetone. […] Oxytetracycline base (20% w/w) was added to each blank formulation and mixed thoroughly to ensure uniform distribution of the drug in the formulations. Drug release from the drug-loaded formulations was performed at 37° C. in isotonic phosphate buffer containing sodium sulfite as an antioxidant.
Three different concentrations (10, 20 or 25% w/w) of a polymer (50/50 lactide-co-glycolide copolymer, inherent viscosity of 0.59) were dissolved in a minimum quantity of acetone. Pure PEG 400 (90, 80 or 75% w/w) was added to the polymer solutions. The solutions were stirred to yield uniform mixtures. Acetone was evaporated from the mixtures by heating at 60-75° C. with constant stirring. The blank formulations were kept in a vacuum oven at 60-75° C. overnight to ensure complete removal of acetone. The resulting formulations obtained were matrices with varying viscosities or consistency. The formulation with 25% polymer was considerably more viscous than the one with 10% polymer. Oxytetracycline base (20% w/w) was added to each blank formulation and mixed thoroughly to ensure uniform distribution of the drug in the formulations. Drug release from the drug-loaded formulations was performed at 37° C. in isotonic phosphate buffer containing sodium sulfite as an antioxidant.
as §1, with “overmight” for “overnight”
The resulting solutions were stirred to yield uniform mixtures. Acetone was evaporated from the mixtures by heating at 60-75° C. with constant stirring. The blank formulations were kept in a vacuum oven at 60-75° C. overnight to ensure complete removal of acetone. […] Oxytetracycline base (20% w/w) was added to each blank formulation and mixed thoroughly to ensure uniform distribution of the drug in the formulations. […]

As for `CN(C)[C@@H]1C(O)=C(C(N)=O)C(=O)[C@@]2(O)C(O)=C3C(=O)c4c(O)cccc4[C@@](C)(O)[C@H]3[C@H](O)[C@@H]12` [oxytetracycline hydrochloride], in data set [1] (hydrochloride salt compared with the base), the aqueous solubility result is recorded as “greater aqueous solubility”.

Turning to `O=C1CC[C@@]2(O)[C@H]3Cc4ccc(O)c5c4[C@@]2(CCN3CC2CC2)[C@H]1O5` [naltrexone hydrochloride], in data set [2], the drug release result is “considerably faster”. Moreover, in data set [1] (compared with hydrated naltrexone base, isotonic phosphate buffer), the “solubility in the dissolution buffer” value is “much greater”.

Regarding `CN(C)[C@@H]1C(=O)C(C(N)=O)=C(O)[C@@]2(O)C(=O)C3=C(O)c4c(O)cccc4[C@@](C)(O)[C@H]3[C@H](O)[C@@H]12` [oxytetracycline base], the in vivo release result in data set [3] was “desired controlled release of the OTC was achieved”. Besides, the drug release result is recorded as “considerably faster” in data set [4] (blend of 75% PEG 400 and 25% TEC compared with 50/50% PEG 400/TEC at similar polymer to plasticizer ratio); “dramatically increased the drug release” in data set [4] (effect of decreasing polymer from 25% to 10% (PEG 400 75% to 90%), 50/50 PLGA i.v. 0.59); “dramatically increased the drug release” in data set [4] (effect of decreasing polymer inherent viscosity from 0.76 to 0.15, 50/50 PLGA, PEG 400); “faster drug release” in data set [4] (effect of going from 0% PEG 400/100% TEC to 100% PEG 400/0% TEC, 25% w/w 50/50 PLGA (i.v. 0.59)); “faster drug release” in data set [4] (polymer to plasticizer ratio 1:5 (16.67% polymer) compared with 1:3 (25% polymer), PEG 400/TEC blends). In addition, in data set [4] (effect of increasing drug loading from 10 to 30% w/w, 25% w/w 50/50 PLGA (i.v. 0.59), PEG 400), the “cumulative amount of drug released at the end of 360 hours” value was “increased the cumulative amount of drug released”. For the same compound, the “drug release (rank among plasticizers)” value is reported as “slowest” in data set [4] (formulations prepared with ATEC, 25% w/w 50/50 PLGA (i.v. 0.59)); “fastest” in data set [4] (formulations prepared with PEG 400, 25% w/w 50/50 PLGA (i.v. 0.59)); “Intermediate drug release” in data set [4] (formulations prepared with TEC, 25% w/w 50/50 PLGA (i.v. 0.59)).

The values are drawn from US20040018238A1, “Biodegradable vehicles and delivery systems of biolgically active substances” (priority 2003, published 2004).
